Experiment [1] has as its system Centauréa cýanus. In words: TLC plant biomarker pattern after herbicide spraying (greenhouse). It is filed as in vivo.
Experiment [2] relates to Lólium perénne. The description is as above. It is filed as in vivo. The conditions noted are these: Roundup Bio; Lólium perénne. How it is done:
(§1) The experiments were performed in the green-house at the National Environmental Research Institute, Silkeborg, Denmark. All the seeds needed light to germinate, and were sown at the soil surface in individual 11 cm pots. The soil used during the experiments contained: (SM Growing Mould (Growing medium by special soil (sphagnum) added clay granulate), 0-30 mm; grade of turnover 55-75; added per m^3: 3 kg lime (white chalk), 1.5 kg dolit chalk, 40 kg clay granulate; Fertilizer added granulate: NO3-N: 55.0 g; NH4-N: 65.0 g; P: 106.6 g; K: 224.0 g; Mg: 22 g; Micro nutrients added in chelate form, Mo in uorganic form: B-Boron: 1 g; Cu-copper: 6 g; Mn-Manganese: 3 g; Zinc-Zn: 3 g: Fe-iron: 6 g; Mo- molybdenum: 1.4 g).
(§2) During the experiments plants were watered from below, and the temperature in the green-house was maintained between 15° C. and 25° C. with variations due to external weather, and the photoperiod was 16th daylight. The green-house is divided into different units, which allowed for the separate maintenance of the control plants from the sprayed plants to avoid undesirable effects due to vapour drift.
(§3) Glyphosate (Roundup Bio (360 g L^−1) was supplied by Monsanto Denmark A/S. Recommended field dose=1,44 kg a.i. ha^−1. In all the experiments, an automatic sprayer (designed in Denmark by Jens Kristensen 1994) was used where the herbicide application is achieved by moving boom equipment with two ordinary hydraulic flat fan nozzles (Hardi 4110-16). Two pots per spray event were placed in the middle of the spray chamber at 50 cm distance from the nozzle, delivering 200 L of water per-hectare with a desired herbicide concentration (working pressure 2 bars; speed of spray boom=4.7 km h^−1). The spraying was performed starting with the lowest concentration first, progressing towards the highest concentration. Between each herbicide, the sprayer was thoroughly rinsed several times with water. The control plants were sprayed with water.
(§4) The fresh plant material was pressed using a hand press. The extract was immediately centrifuged. (3000 rpm) for 10 minutes. The supernatant was used for analysis. The extracts were kept cool or right above 0° C. during the test to avoid decomposition of biomarkers.
(§5) Freeze-dried plant material was crushed and 250 mg was extracted with 5.00 ml 75% ethanol in an ultrasonic bath for 2 hours. The temperature was kept <0° C. (using ice) during the extraction to avoid decomposition of biomarkers. The extract was centrifuged (3000 rpm) for 10 minutes. The supematant was used for analysis and were kept cool during the test to avoid decomposition of biomarkers.
(§6) The two extracts (freshtfresh ethanol) were applicated immediately on a TLC plate (10 μl on both TLC-Plate types (see below) using cool air-drying. The 75% ethanolic extract was applicated 10 μl on Silica-gel TLC-plates and 5 μl on Cellulose TLC-plates (see below). The fresh/fresh ethanolic extractsare recommended to perform if fresh plant material are to be analysed (field-test). The freeze-dried or frozen plant material extraction Is recommended if the analysis are performed in the laboratory.
(§7) TLC-System 1: HPTLC-Alufolie Silica Gel 60 F254, Merck 1.05548 (10×10 cm); 10 μl plant extracts plants exposed to glyphosate and control plants; eluted in n-butanol acetic acid: water (4:1:5) (upper phase after 5 minutes shaking). Derivatisation: Stock solution 1:50% sulfuric acid in 96% ethanol; Stock solution 2: 2% vanillin in absolut alcohol; Derivatisation-solvent, Fresh produced before us, stock solution 1 and stock solution 2 (1:10); Aftercare: 120° C. in 2-3 min. The plate is valuated visually. The system detects higher alcoholics, phenolic compounds, steroids and etheric oils (Stahl 1969), terpenoids, phenyl propanolds, phenolic compounds (Wagner etea. 1984) […]

In a further experiment the test system is Plantágo lanceoláta. Described as above. The class given is in vivo. Here is the method: as §1, §2, §3, §4, §5, §6, §7
A further experiment concerns Anagallis arvensis. Briefly: Visual effect rating (0-9) after herbicide spraying. It is filed as in vivo. The conditions noted are these: Roundup Bio, Anagallis arvensis. The source says: (§8) Four, eight, sixteen and thirty two days after spraying, visual effects on plants were noted before harvest, using the rating chart described in Hamil. et al. (1977) and Boutin et al. (1993); a rating of zero indicates full growth and vigour, and a rating of nine indicates no growth/mortality.
(§9) The min. visual effect (VE) of the presence of plant biomarkers is rated as described by Hamil et al., (1977) and Boutin et al. (1993).

Experiment [3] deals with Centauréa cýanus. The description is as above. It is filed as in vivo.
Source text: as §8, §9

The test system of experiment [4] is Lólium perénne. The description is as above. It is filed as in vivo. The conditions noted are these: Roundup Bio, Lólium perénne.
Source text: as §8, §9

In another experiment the test system is Bellis perennis. In words: Visual effect rating (0-9) after Roundup Bio. It is filed as in vivo. Here is the method: as §8
(§10) The study was performed in greenhouse between August and December 1998 for all species. Degree days (=(Present temperature in ° C.-5° C.)×amount of days) were used as time scale. The plants were 226-378 degree days (30 days) old before exposure. The plants were exposed to 0, 1. 10 and 100% of the recommended field dose of Roundup Bio. Before the harvest, the plants were evaluated for visual effects using the rating chart described in Table 1 (Hamit et al., 1977). A rating of zero indicates full growth and vigour (compared with control plants) and a rating of nine, no growth/mortality. The plants were all harvested 180 degree days (14 days) after exposure. The plants were lyophilizied and k pt dry and in dark before phytochemical analysis.
(§11) Table 2: Sensitivity of plants exposed to glyphosate (Roundup Bio), based on presence of phytochemical changes in all the TLC-Systems at lowest dose of concentration (LC) of the herbicide in percent of field dose. The corresponding visual effect (VE) Is presented (see table 1).

The test system of a further experiment is Leonorus carica. In words: Visual effect rating (0-9) after Roundup Bio. The class given is in vivo. How it is done:
as §8, §10, §11

For another experiment, the system named is Mentha spicata. In words: Visual effect rating (0-9) after Roundup Bio. The class given is in vivo. How it is done:
as §8, §10, §11

For a further experiment, the system named is Nepeta cataria. Briefly: Visual effect rating (0-9) after Roundup Bio. It is filed as in vivo. How it is done: as §8, §10, §11
Another experiment has as its system Papaver rhoeas. Briefly: Visual effect rating (0-9) after Roundup Bio. The class given is in vivo. Here is the method: as §8, §10, §11
In the next experiment the test system is Rudbeckia hirta. Briefly: Visual effect rating (0-9) after Roundup Bio. It is filed as in vivo. Here is the method: as §8, §10, §11
The test system of another experiment is Sinapis avensis. In words: Visual effect rating (0-9) after Roundup Bio. The class given is in vivo. Here is the method: as §8, §10, §11
The next experiment concerns tobacco cell cultures. The conditions noted are these: two cell lines, in the presence of glyphosate; cited from earlier work.

For the compound `O=C(O)CNCP(=O)(O)O` [Glyphosate], the “Min. of label dose of herbicide with effect” value is reported as 10% in the experiment with Centauréa cýanus [1] (TLC 1 (non-specific compounds)); 10% in the experiment on Centauréa cýanus [1] (TLC 6 (lipids and terpens)); 10% in the experiment with Centauréa cýanus [1] (TLC 7 (non-specific compounds)); 1% in the experiment on Plantágo lanceoláta (TLC 1 (non-specific compounds)); 1% in the experiment with Plantágo lanceoláta (TLC 2 (phenolic compounds)); 1% with Plantágo lanceoláta (TLC 6 (lipids and terpens)). Moreover, the “Min. of label dose of herbicide with effect” value in the experiment on Plantágo lanceoláta (TLC 7 (non-specific compounds)) and in the experiment with Plantágo lanceoláta (TLC 4d (amino acids)) was 1% each time. For the same compound, the “LC: lowest dose of concentration of the herbicide with phytochemical changes in all the TLC-Systems” value is listed as 1% of field dose in the experiment on Lólium perénne [2] and 1% of field dose in the experiment on Plantágo lanceoláta (Roundup Bio, Plantágo lanceoláta). Moreover, the “VE: corresponding visual effect” value came out at 0 in the experiment with Anagallis arvensis; 0 in the experiment on Lólium perénne [4]; 7 with Bellis perennis; 5 in the experiment on Leonorus carica; 6 in the experiment with Mentha spicata; 7 with Nepeta cataria. Moreover, the “VE: corresponding visual effect” value came out at 4 in the experiment with Papaver rhoeas, 1 in the experiment with Rudbeckia hirta and 7 with Sinapis avensis. Moreover, the Min. visual effect in the experiment on Centauréa cýanus [3] (at presence of TLC 1 biomarker), in the experiment on Centauréa cýanus [3] (at presence of TLC 6 biomarker) and in the experiment on Centauréa cýanus [3] (at presence of TLC 7 biomarker) was 3 throughout. Moreover, in the experiment with tobacco cell cultures, the “increase of levels of free shikimic acid” value is given as “more than 300 fold”.
